Laboratory results as given in paper PMC6442233, “SAR and molecular mechanism studies of monoamine oxidase inhibition by selected chalcone analogs” (Journal of Enzyme Inhibition and Medicinal Chemistry, 2019).

What was measured:
[1] = target: T1, human MAO-B (Homo sapiens, UniProt P27338); experiment: IC50 determination for MAO-B inhibition (kynuramine, fluorescence); format: biochemical; details: for Selectivity index: SI = IC50(MAO-A)/IC50(MAO-B); for IC50: recombinant hMAO-B, kynuramine 50 μM, mean ± SD (triplicate)
T1 construct: purchased Sigma-Aldrich
T1 sequence (P27338 1-520): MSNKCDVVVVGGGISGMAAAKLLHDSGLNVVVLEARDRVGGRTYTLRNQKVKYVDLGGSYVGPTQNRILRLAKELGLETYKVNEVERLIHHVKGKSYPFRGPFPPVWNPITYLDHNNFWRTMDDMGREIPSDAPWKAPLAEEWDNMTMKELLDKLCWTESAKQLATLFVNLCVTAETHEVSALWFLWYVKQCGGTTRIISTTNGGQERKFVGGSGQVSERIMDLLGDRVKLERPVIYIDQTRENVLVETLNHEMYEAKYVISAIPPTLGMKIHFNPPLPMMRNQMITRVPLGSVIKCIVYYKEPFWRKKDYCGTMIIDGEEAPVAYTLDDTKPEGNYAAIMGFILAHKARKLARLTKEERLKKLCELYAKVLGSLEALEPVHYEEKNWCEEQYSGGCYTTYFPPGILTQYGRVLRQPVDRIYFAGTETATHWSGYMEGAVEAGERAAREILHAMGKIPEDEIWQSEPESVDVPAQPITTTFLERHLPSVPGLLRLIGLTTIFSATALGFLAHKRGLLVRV
Method: (§1) IC50 values for the inhibition of MAO were determined by using the recombinant human MAO-A and MAO-B enzymes (Sigma-Aldrich). Enzyme reactions were performed at a final volume of 200 µL in white 96-well microplates (Eppendorf), with the reaction solvent consisting of potassium phosphate buffer (100 mM, pH 7.4, adjusted to isotonicity with KCl). The reactions contained the nonselective MAO substrate, kynuramine (50 μM), and the test inhibitors at 0.003–100 µM. The test compounds were initially dissolved in DMSO (100%), and after addition to the reactions yielded a concentration of 4% DMSO. Control reactions were included, which contained substrate and 4% DMSO but no test inhibitor. The MAO reactions were started by adding MAO-A (0.0075 mg protein/mL) or MAO-B (0.015 mg protein/mL), and were subsequently incubated for a period of 20 min (37 °C) in a convection oven. A volume of 80 µL 2 N sodium hydroxide was added to the reactions, and the fluorescence intensity of 4-hydroxyquinoline (the end-product of the MAO-catalyzed metabolism of kynuramine) in the reactions was measured at λex 310 and λem 400 nm. To quantify 4-hydroxyquinoline, a calibration curve (linear) ranging from 0.047 to 1.56 μM, was employed. […] These measurements were carried out in triplicate and the IC50 values are presented as the mean ± standard deviation (SD)[18].
(§2) The formation of the dihydropyridinium species (MMDP^+) as a MAO-catalyzed oxidation product of MMTP was monitored at 420 nm. […] Based on this, the IC50 values were determined using kynuramine as a nonselective substrate. The rate of oxidation of kynuramine by MAO was monitored by measuring the fluorescence of the oxidation product, 4-hydroxyquinoline (λex= 310 nm; λem= 400 nm).

[2] = target: T2, human MAO-A (Homo sapiens, UniProt P21397); experiment: IC50 determination for MAO-A inhibition (kynuramine, fluorescence); format: biochemical; details: recombinant hMAO-A, kynuramine 50 μM, mean ± SD (triplicate)
T2 construct: purchased Sigma-Aldrich
T2 sequence (P21397 1-527): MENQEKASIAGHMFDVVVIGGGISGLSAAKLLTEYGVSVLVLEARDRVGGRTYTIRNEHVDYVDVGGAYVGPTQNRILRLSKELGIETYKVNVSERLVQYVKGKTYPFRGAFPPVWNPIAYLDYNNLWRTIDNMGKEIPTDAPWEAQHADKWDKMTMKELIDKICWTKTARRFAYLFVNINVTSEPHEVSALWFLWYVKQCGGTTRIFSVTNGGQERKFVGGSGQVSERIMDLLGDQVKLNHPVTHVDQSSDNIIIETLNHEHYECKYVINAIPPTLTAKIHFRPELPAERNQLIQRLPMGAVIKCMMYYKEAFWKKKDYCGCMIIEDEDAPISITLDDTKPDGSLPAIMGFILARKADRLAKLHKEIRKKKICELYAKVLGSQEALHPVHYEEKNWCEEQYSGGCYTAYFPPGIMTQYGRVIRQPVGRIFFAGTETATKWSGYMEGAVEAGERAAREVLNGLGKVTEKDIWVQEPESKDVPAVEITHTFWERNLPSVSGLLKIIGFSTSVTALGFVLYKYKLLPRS
Method: as §1, §2

[3] = tested on: Rat hepatoma (H4IIE) cells; experiment: Dopamine assay in H4IIE cells (HPLC with electrochemical detection); format: cell-based; details: 70 µM compound, 50 µM L-DOPA
Method: (§3) Rat hepatoma (H4IIE) cells were purchased from American Type Culture Collection (ATCC). H4IIE cells are from rat liver, and contain both MAO-A and MAO-B in approximately equal levels. Cells were cultured in Eagle’s minimum essential medium (EMEM) supplemented with 10% fetal bovine serum (FBS) and 1% streptomycin/penicillin at 37 °C in a 5% CO2 humidified incubator. Cells were plated at a cell density of 3.0 × 10^5 cells in each well of six well plates. Upon 80% confluence, the cells were washed with phosphate buffered saline (PBS) and the media were changed to HBSS supplemented with 10 mM HEPES and 5 mM D-glucose, pH 7.4. These media also contained calcium chloride (1.26 mM) and magnesium chloride (0.5 mM). Cells were then treated with tolcapone (1 0^−6 M), a catechol-O-methyltransferase (COMT) inhibitor to protect dopamine from enzymatic degradation, 20 min prior to starting the experiment. The cells were treated with the negative vehicle control (1% DMSO) or 70 µM of the MAO-B inhibitors (compounds 12, 14, 16, and 17) with the DMSO concentration also being 1%. The cells were subsequently treated with L-DOPA (50 µM). To measure dopamine release and MAO-B gene expression, both the cells and media were collected at 0, 30, 60, and 120 min after treatment. Dopamine level was measured in the supernatant aspirated from the cells by using high performance liquid chromatography (HPLC), while the cells were lysed with trizol for RNA extraction and subsequent gene expression studies.
Rat hepatoma cells (H4IIE) were treated with 1% DMSO (vehicle-control), compounds 12, 14, 16, or 17 for different time points at a concentration of 70 µM of each compound along with 50uM L-DOPA.
The concentrations of dopamine were detected using a CoulArray electrochemical array detector system as described previously. Briefly, supernatants obtained from cell culture were filtered using 0.22 μm filter. The filtrates were subsequently injected onto a C18 column (3.2 × 150 mm, 3 μm particle size, Thermo Scientific). The mobile phase consisted of a mixture of 54.3 mM sodium phosphate, 0.215 mM octyl sodium sulfate, 0.32 mM citric acid and 11% methanol. Dopamine concentrations were measured with the CoulArray Electrochemical Array Detector. The chromatograms were analyzed using the CoulArray software. A standard calibration curve was determined using different concentrations of an external standard dopamine (SigmaAldrich).
(§4) One-way ANOVA followed by Dunnett’s test (compared to the vehicle-control) was used to analyze the data obtained for the dopamine concentrations for compounds 12, 14, 16, and 17targeting MAO-B at 0, 30, 60, and 120 min. One-way ANOVA followed by Newman–Keuls multiple comparison tests was used to analyze time-dependent effects of compounds 14 and 17 on the relative mRNA expression (triplicate) of MAO-B enzyme.

[4] = tested on: MAO-B mRNA expression; experiment: MAO-B mRNA expression in H4IIE cells (qRT-PCR); format: cell-based, rat; details: 70 µM
Method: as §3
Total RNA was isolated using the Trizol agent (Invitrogen). One μg of RNA from each sample was reverse transcribed to cDNA using the M-MLV reverse transcriptase kit, according to the manufacturer’s instruction (Promega). PowerUp SYBR green master mix (Life technologies) was used for quantitative real-time polymerase chain reaction (qRT-PCR) for analysis of gene expression. The following primers were used (IDTs) MAO-B forward, […]; MAO-B reverse, […]; β-actin forward, […] and β-actin reverse, […]. qRT-PCR was performed in a 384 well plates with the Quant Studio-5 instrument (Applied Biosystems). Samples were carried out in triplicate in a 10 µL reaction volume using the following cycling conditions: UDG activation for one cycle at 50 °C for 2 min, followed by a single cycle at 95 °C for 2 min, then 40 cycles of denaturation at 95 °C for 15 s, and annealing at 60 °C for 1 min. β-actin was used as a loading control and gene expression was calculated using the 2^-ΔΔCT method as described previously.
as §4

[5] = target: T2, human MAO-A; experiment: Lineweaver-Burk plots and Ki calculation, MAO-A; format: biochemical
Method: (§5) Sets of six Lineweaver–Burk plots each were prepared to determine if the inhibition of MAO-A and MAO-B by compound 16 is competitive. […] The substrate, kynuramine, was used at concentrations ranging from 15 to 250 μM, whereas the final enzyme concentration was 0.015 mg protein/mL. […] Ki values were estimated by graphing the slopes of the Lineweaver–Burk plots against inhibitor concentration. The intercept of the x-axis is equal to –Ki.

[6] = target: T1, human MAO-B; experiment: Lineweaver-Burk plots and Ki calculation, MAO-B; format: biochemical
Method: as §5

[7] = target: T2, human MAO-A; experiment: Reversibility of MAO-A inhibition by dialysis; format: biochemical; details: for Reversibility of MAO-A inhibition: dialysis 24 h, inhibitor at 4 × IC50
Method: (§6) The reversibility of inhibition of MAO by compound 16 was investigated by dialysis. Dialysis cassettes (Slide-A-Lyzer®; Thermo Scientific) with a volume of 0.5–3 mL and a molecular weight cutoff of 10,000 were used for the dialysis. […] The volume of these mixtures was 0.8 mL, and contained 4% DMSO. The mixtures were pre-incubated for 15 min at 37 °C and then dialyzed at 4 °C in buffer (80 mL), using the above buffer as dialysis buffer. After 3 and 7 h of dialysis, the dialysis buffer was changed with fresh buffer. […] For comparison, incubations of the MAOs and the test inhibitor were prepared as above but were not dialyzed and kept at 4 °C over the same time period. These experiments were carried out in triplicate, and the remaining enzyme catalytic rates are reported as the mean (± SD).

[8] = target: T1, human MAO-B; experiment: Reversibility of MAO-B inhibition by dialysis; format: biochemical
Method: as §6

[9] = Lineweaver-Burk plots cross on the y-axis
[10] = slopes of Lineweaver-Burk plots vs inhibitor concentration, kynuramine 15-250 μM
[11] = 4 × IC50, incubated 15 min, dialyzed 24 h, compared to negative control (100%)
[12] = 4 × IC50, not dialyzed, compared to negative control (100%)

Selectivity index [1] | IC50 [1] [µM] | IC50 [2] [µM] | melting point [°C] | Structure (SMILES) | Dopamine concentration vs vehicle-control ([3]; 30 min) | Dopamine concentration vs vehicle-control ([3]; 60 min) | Dopamine concentration vs vehicle-control ([3]; 120 min) | Relative MAO-B mRNA expression vs negative control ([4]; 0 min) | Relative MAO-B mRNA expression vs negative control ([4]; 30 min) | Relative MAO-B mRNA expression vs negative control ([4]; 60 min) | Reversibility of MAO-A inhibition [7] | other results
11 | 0.043 ± 0.004 | 0.506 ± 0.052 | 126 to 130 | O=C(/C=C/c1ccc(F)cc1)c1ccc2c(c1)OCO2 [Compound 14, (E)-1-(benzo[d][1,3]dioxol-5-yl)-3–(4-fluorophenyl)prop-2-en-1-one] | increased | elevation | increase | no significant changes | reduced | no significant changes | – | Relative MAO-B mRNA expression vs negative control ([4]; 120 min): decreased; Relative MAO-B mRNA expression vs 0 min time point ([4]; 120 min exposure): decreased
3.0 | 0.05 ± 0.002 | 0.149 ± 0.011 | – | O=C(/C=C/c1ccc(Cl)cc1)c1ccc2c(c1)OCO2 [Compound 16, (E)-1-(benzo[d][1,3]dioxol-5-yl)-3–(4-chlorophenyl)prop-2-en-1-one] | – | – | – | – | – | – | reversibly inhibits | Mode of MAO-A inhibition [5, 9]: competitive; Ki [5, 10]: 47 nM; Mode of MAO-B inhibition [6, 9]: competitive; Ki [6, 10]: 20 nM; MAO-A activity after dialysis [7, 11]: 103%; MAO-A activity, undialyzed samples [7, 12]: 31%; MAO-B activity after dialysis [8, 11]: 105%; MAO-B activity, undialyzed samples [8, 12]: 34%; Reversibility of MAO-B inhibition ([8]; dialysis 24 h, inhibitor at 4 × IC50): reversibly inhibits
13 | 0.069 ± 0.004 | 0.927 ± 0.121 | 172 to 175 | O=C(/C=C/c1ccc([N+](=O)[O-])cc1)c1ccc2c(c1)OCO2 [Compound 17, (E)-1-(benzo[d][1,3]dioxol-5-yl)-3–(4-nitrophenyl)prop-2-en-1-one] | increased | elevation | increase | no significant changes | reduced | no significant changes | – | Relative MAO-B mRNA expression vs 0 min time point ([4]; 30 min exposure): reduced; Relative MAO-B mRNA expression vs 0 min time point ([4]; 60 min exposure): reduced
– | – | – | – | C#CCN(C)Cc1ccccc1 [Pargyline, reference compound] | – | – | – | – | – | – | dialysis failed to restore catalytic activity | –
